Measured values from ChEMBL document CHEMBL5131517 (ACS Med Chem Lett, 2022).

Columns and labels:
[1] = molecular target: 5-hydroxytryptamine receptor 2A (Homo sapiens, UniProt P28223); assay: Agonist activity at human 5HT2A receptor stably expressed in Flp-In-T-REx-293 cells assessed as maximal Gq-mediated calcium flux by Fluo-4 direct dye based FLIPR Tetra assay relative to control; format: functional, cell-based; details: filed as agonist
[2] = molecular target: 5-hydroxytryptamine receptor 2B (Homo sapiens, UniProt P41595); assay: Agonist activity at human 5HT2B receptor stably expressed in Flp-In-T-REx-293 cells assessed as maximal Gq-mediated calcium flux by Fluo-4 direct dye based FLIPR Tetra assay relative to control; format: functional, cell-based; details: filed as agonist
Chain of 5-hydroxytryptamine receptor 2B (P41595 whole entry): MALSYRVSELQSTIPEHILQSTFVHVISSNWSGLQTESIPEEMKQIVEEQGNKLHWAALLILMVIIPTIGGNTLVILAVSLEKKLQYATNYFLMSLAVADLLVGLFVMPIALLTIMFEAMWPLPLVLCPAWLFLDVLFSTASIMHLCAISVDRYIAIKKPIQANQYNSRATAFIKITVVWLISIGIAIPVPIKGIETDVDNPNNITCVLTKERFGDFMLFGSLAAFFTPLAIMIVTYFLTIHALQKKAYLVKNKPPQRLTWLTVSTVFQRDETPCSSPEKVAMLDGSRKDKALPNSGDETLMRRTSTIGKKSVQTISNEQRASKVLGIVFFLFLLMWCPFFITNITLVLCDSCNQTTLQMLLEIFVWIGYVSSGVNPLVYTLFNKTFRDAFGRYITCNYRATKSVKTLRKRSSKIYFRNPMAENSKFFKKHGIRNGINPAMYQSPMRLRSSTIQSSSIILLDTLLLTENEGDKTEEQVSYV

[3] = molecular target: 5-hydroxytryptamine receptor 7 (Homo sapiens, UniProt P34969); assay: Binding affinity to 5HT7 receptor (unknown origin) assessed as inhibition constant
Chain of 5-hydroxytryptamine receptor 7 (P34969 whole entry): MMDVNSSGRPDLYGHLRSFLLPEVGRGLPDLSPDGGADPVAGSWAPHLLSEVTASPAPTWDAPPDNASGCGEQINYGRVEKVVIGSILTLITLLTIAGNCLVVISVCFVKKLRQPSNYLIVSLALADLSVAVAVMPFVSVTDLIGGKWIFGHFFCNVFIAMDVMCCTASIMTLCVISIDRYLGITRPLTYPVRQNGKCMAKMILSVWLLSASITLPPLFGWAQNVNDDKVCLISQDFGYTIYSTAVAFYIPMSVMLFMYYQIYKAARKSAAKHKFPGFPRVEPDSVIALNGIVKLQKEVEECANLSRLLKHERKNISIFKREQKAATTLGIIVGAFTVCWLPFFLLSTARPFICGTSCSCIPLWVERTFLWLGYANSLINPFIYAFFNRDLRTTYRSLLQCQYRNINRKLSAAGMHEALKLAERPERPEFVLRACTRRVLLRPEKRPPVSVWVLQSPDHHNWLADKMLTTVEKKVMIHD

[4] = molecular target: Sodium-dependent serotonin transporter (Homo sapiens, UniProt P31645); assay: Inhibition of SERT receptor (unknown origin); details: concentration not given here
Chain of Sodium-dependent serotonin transporter (P31645 whole entry, looked up): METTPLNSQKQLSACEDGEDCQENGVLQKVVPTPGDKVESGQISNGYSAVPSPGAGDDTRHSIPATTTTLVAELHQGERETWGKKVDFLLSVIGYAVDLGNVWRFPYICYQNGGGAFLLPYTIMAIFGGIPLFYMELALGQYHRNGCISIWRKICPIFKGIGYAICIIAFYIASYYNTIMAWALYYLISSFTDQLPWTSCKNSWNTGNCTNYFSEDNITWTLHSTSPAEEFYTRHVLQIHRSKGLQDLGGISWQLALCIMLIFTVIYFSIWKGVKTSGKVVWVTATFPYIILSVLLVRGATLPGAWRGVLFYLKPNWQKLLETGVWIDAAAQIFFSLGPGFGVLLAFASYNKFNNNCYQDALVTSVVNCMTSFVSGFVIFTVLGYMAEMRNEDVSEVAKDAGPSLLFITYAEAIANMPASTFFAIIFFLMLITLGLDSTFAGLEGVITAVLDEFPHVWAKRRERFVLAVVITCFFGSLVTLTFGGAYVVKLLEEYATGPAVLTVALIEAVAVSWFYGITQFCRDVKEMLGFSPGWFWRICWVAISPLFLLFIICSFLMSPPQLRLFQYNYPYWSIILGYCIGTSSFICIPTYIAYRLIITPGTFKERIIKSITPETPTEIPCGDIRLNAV

[5] = molecular target: 5-hydroxytryptamine receptor 1D (Homo sapiens, UniProt P28221); assay: Binding affinity to 5HT1D receptor (unknown origin) assessed as inhibition constant
[6] = molecular target: T1, 5-hydroxytryptamine receptor 1A (Homo sapiens, UniProt P08908); assay: Binding affinity to 5HT1A receptor (unknown origin) assessed as inhibition constant
T1 sequence (P08908 whole entry): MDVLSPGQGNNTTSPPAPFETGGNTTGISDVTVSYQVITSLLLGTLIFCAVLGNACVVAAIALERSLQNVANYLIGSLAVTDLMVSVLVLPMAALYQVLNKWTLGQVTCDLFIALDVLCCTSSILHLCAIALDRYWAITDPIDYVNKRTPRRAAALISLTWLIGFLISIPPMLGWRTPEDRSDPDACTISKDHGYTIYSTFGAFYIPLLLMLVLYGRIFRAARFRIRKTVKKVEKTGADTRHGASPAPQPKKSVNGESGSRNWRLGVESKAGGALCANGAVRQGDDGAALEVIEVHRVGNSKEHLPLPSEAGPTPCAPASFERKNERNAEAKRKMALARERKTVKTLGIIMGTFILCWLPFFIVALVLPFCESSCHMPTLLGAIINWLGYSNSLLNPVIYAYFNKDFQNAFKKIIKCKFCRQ

[7] = molecular target: T2, Alpha-2A adrenergic receptor (Homo sapiens) (UniProt P08913); assay: Inhibition of alpha2A receptor (unknown origin); details: concentration not given here
T2 sequence (whole entry): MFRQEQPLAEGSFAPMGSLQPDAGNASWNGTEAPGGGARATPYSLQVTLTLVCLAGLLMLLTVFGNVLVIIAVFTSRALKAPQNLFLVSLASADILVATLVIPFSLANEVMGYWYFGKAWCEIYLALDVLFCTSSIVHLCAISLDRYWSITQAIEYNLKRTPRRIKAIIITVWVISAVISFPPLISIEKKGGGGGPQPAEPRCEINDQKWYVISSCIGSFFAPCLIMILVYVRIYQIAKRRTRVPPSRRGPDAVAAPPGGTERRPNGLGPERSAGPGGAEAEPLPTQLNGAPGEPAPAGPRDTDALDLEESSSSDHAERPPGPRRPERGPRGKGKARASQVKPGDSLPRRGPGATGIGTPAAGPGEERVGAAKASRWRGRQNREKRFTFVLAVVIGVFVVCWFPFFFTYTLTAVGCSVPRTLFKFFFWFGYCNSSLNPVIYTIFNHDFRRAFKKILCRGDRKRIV

[8] = molecular target: Beta-3 adrenergic receptor (Homo sapiens) (UniProt P13945); assay: Inhibition of beta 3 receptor (unknown origin); details: concentration not given here
Chain of Beta-3 adrenergic receptor (Homo sapiens) (P13945 whole entry, looked up): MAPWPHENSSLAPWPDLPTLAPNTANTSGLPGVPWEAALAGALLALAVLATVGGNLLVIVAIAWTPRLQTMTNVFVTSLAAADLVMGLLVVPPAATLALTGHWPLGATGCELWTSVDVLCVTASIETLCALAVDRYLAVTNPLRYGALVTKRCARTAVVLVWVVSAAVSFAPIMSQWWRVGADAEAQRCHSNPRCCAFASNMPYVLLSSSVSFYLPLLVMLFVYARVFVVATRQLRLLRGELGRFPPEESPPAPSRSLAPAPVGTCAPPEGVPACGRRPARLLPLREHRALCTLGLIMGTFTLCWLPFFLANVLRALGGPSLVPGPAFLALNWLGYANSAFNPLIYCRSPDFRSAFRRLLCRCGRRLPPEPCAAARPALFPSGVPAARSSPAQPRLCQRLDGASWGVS

[9] = molecular target: D(1A) dopamine receptor (Homo sapiens) (UniProt P21728); assay: Inhibition of D1 receptor (unknown origin); details: concentration not given here
Chain of D(1A) dopamine receptor (Homo sapiens) (P21728 whole entry): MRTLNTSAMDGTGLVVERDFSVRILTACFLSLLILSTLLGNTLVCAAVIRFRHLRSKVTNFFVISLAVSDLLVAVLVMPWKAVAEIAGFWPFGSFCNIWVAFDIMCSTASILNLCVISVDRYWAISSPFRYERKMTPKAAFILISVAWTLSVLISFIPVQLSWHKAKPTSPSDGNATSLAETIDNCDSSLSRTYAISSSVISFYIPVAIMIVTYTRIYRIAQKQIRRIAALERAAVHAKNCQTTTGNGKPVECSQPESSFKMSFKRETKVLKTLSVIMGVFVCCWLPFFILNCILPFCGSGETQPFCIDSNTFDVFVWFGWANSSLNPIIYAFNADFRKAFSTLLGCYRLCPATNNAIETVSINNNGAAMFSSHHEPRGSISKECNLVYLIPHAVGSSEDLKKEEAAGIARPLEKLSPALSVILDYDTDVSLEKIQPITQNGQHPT

[10] = molecular target: D(1B) dopamine receptor (Homo sapiens) (UniProt P21918); assay: Inhibition of D5 receptor (unknown origin); details: concentration not given here
Chain of D(1B) dopamine receptor (Homo sapiens) (P21918 whole entry): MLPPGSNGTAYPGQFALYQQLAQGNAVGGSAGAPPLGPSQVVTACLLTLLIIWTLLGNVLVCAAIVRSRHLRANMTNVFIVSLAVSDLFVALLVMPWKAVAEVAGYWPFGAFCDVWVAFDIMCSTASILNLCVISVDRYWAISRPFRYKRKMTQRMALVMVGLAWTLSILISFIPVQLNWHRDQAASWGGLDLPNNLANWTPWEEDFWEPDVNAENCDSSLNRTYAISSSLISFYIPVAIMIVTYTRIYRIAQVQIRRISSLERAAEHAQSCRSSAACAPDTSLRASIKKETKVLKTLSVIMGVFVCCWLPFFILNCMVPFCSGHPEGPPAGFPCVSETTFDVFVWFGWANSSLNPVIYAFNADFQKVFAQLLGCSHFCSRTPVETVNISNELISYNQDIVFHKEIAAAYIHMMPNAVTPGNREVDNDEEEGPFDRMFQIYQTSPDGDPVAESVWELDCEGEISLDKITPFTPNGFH

[11] = molecular target: Histamine H1 receptor (Homo sapiens) (UniProt P35367); assay: Inhibition of H1 receptor (unknown origin); details: concentration not given here
[12] = molecular target: Histamine H2 receptor (Homo sapiens) (UniProt P25021); assay: Inhibition of H2 receptor (unknown origin); details: concentration not given here
Chain of Histamine H2 receptor (Homo sapiens) (P25021 whole entry): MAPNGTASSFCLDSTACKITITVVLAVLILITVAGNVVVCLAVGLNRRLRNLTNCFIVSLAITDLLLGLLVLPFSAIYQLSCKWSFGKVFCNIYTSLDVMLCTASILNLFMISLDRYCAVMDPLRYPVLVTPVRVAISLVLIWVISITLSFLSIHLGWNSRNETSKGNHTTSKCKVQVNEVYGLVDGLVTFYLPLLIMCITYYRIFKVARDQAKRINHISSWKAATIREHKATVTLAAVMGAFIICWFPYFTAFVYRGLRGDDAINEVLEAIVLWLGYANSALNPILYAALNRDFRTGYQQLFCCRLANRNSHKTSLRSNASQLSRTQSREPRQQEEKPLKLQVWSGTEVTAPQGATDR

[13] = molecular target: Histamine H3 receptor (Homo sapiens) (UniProt Q9Y5N1); assay: Inhibition of H3 receptor (unknown origin); details: concentration not given here
Chain of Histamine H3 receptor (Homo sapiens) (Q9Y5N1 whole entry): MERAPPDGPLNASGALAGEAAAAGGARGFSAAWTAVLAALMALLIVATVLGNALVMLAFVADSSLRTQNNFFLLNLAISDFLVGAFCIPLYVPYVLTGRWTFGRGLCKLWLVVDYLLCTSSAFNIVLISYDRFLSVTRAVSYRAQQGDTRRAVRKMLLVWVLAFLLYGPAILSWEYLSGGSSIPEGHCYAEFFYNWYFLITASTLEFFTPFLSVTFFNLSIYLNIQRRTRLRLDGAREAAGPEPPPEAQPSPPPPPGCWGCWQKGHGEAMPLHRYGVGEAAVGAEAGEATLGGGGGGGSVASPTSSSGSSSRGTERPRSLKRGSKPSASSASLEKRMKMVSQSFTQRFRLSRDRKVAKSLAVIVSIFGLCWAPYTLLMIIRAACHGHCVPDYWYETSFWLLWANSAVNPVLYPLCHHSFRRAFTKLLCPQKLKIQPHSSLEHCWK

[14] = molecular target: T3, Muscarinic acetylcholine receptor M1 (Homo sapiens) (UniProt P11229); assay: Inhibition of M1 receptor (unknown origin); details: concentration not given here
T3 sequence (whole entry): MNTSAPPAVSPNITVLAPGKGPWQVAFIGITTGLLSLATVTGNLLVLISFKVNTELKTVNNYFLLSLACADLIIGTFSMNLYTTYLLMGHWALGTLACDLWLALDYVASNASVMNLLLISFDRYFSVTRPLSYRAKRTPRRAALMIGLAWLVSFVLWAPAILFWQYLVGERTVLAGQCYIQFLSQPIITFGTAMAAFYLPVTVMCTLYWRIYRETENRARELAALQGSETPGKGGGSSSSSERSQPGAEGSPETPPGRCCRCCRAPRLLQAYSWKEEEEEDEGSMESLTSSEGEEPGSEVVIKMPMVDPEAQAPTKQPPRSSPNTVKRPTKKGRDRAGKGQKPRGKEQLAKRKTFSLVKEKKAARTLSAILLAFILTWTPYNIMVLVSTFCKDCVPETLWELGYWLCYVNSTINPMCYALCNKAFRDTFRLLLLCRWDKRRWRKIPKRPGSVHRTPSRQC

[15] = molecular target: T4, Muscarinic acetylcholine receptor M2 (Homo sapiens) (UniProt P08172); assay: Inhibition of M2 receptor (unknown origin); details: concentration not given here
T4 sequence (whole entry): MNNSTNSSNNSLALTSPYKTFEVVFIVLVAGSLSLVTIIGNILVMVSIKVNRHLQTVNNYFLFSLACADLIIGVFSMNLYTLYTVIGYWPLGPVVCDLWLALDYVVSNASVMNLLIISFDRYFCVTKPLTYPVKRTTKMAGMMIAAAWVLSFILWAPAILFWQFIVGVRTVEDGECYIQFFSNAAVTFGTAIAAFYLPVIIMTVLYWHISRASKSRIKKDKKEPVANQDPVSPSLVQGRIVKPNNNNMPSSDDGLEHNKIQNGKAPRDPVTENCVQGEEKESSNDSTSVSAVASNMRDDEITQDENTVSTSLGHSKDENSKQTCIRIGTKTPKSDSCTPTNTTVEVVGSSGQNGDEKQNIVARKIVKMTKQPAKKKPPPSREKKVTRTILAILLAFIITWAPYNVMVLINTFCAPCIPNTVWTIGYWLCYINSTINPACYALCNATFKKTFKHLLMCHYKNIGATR

[16] = molecular target: Delta-type opioid receptor (Homo sapiens) (UniProt P41143); assay: Inhibition of DOR receptor (unknown origin); details: concentration not given here
[17] = molecular target: Kappa-type opioid receptor (Homo sapiens) (UniProt P41145); assay: Inhibition of KOR receptor (unknown origin); details: concentration not given here
[18] = molecular target: Sodium-dependent noradrenaline transporter (Homo sapiens) (UniProt P23975); assay: Inhibition of NET receptor (unknown origin); details: concentration not given here
Chain of Sodium-dependent noradrenaline transporter (Homo sapiens) (P23975 whole entry): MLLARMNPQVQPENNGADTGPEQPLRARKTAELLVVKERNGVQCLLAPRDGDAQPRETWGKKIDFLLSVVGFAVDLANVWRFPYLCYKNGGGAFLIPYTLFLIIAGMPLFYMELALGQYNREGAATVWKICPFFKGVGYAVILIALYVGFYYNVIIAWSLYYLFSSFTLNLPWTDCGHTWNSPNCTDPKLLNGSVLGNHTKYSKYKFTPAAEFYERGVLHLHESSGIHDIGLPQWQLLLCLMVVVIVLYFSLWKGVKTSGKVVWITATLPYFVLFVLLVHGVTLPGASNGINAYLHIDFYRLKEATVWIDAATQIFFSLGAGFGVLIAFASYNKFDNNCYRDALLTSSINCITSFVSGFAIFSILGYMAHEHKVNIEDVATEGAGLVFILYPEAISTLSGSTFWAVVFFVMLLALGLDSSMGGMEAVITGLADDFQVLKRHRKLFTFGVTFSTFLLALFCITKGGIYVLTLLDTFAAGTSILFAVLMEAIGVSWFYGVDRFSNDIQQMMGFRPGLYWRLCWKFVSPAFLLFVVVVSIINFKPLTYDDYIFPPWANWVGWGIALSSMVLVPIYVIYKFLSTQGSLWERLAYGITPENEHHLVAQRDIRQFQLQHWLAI

[19] = molecular target: Translocator protein (Homo sapiens) (UniProt P30536); assay: Inhibition of peripheral benzodiazepine receptor (unknown origin); details: concentration not given here

Chain of 5-hydroxytryptamine receptor 2A (P28223 whole entry): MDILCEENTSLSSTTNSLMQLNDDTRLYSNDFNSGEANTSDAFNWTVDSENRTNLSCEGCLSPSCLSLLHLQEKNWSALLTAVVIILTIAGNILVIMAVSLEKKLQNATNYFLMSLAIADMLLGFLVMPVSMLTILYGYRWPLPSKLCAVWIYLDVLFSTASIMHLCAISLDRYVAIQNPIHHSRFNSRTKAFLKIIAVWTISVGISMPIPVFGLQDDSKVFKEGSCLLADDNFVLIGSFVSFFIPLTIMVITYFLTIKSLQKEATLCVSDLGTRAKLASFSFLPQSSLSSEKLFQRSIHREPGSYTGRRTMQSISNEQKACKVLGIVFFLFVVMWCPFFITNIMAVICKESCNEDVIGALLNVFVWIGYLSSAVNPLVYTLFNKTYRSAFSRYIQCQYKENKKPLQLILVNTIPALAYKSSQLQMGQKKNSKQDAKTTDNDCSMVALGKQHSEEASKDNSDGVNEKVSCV

Emax [1] [%]	Emax [2] [%]	Ki [3] [nM]	inhibition [4] [%]	Ki [5] [nM]	Ki [6] [nM]	inhibition [7] [%]	inhibition [8] [%]	inhibition [9] [%]	inhibition [10] [%]	inhibition [11] [%]	inhibition [12] [%]	inhibition [13] [%]	inhibition [14] [%]	inhibition [15] [%]	inhibition [16] [%]	inhibition [17] [%]	inhibition [18] [%]	inhibition [19] [%]	Structure (SMILES)
97.1	106	249	< 50	660	1370	< 50	< 50	< 50	< 50	< 50	< 50	< 50	< 50	< 50	< 50	< 50	< 50	< 50	COc1cc(OC)c(C2NCCc3c2[nH]c2ccc(F)cc32)cc1OC (stereo not given)
98.4	96.7	2.5	< 50	38.8	22.4	< 50	< 50	< 50	< 50	< 50	< 50	< 50	< 50	< 50	< 50	< 50	< 50	< 50	COc1cc(OC)c(C2NCCc3c2[nH]c2ccc(Cl)cc32)cc1OC (stereo not given)
100	99.4	7.98	< 50	31.5	79.9	< 50	< 50	< 50	< 50	< 50	< 50	< 50	< 50	< 50	< 50	< 50	< 50	< 50	COc1ccc(C2NCCc3c2[nH]c2ccc(Cl)cc32)c(O)c1 (stereo not given)
102	102	25.4	–	110	94.4	< 50	< 50	< 50	< 50	< 50	< 50	< 50	< 50	< 50	< 50	< 50	< 50	< 50	COc1ccc(C2NCCc3c2[nH]c2ccc(F)cc32)c(O)c1 (stereo not given)
